In patent US11884750B2, “Cationic cell penetrating peptides and the use thereof” (CELLTROY CO., LTD., priority 2021, dated 2024):
Entries after “also recorded” stand apart in the source; their conditions may differ.

Key:
HepG2 cell line = assay: Cell penetration efficiency using liver cells; type: cell-based; details: 4 μM FITC-conjugated CPP, one hour
Protocol: (§1) Subsequently, to confirm whether the CPPs according to the present invention show excellent cell permeability into different types of cells/tissues, various tissue-derived cells were treated with biologically active molecule-conjugated CPPs to compare its delivery capacity with TAT. As in the previous examples, each cell was aliquoted in a plate at an appropriate density, and cultured in a 10% FBS-added medium under a condition of 37° C. and 5% CO2 for 24 hours. Subsequently, the cells were treated with 4 μM each of FITC-conjugated CPP or FITC-conjugated TAT and incubated for one hour. After the completion of the incubation, the cells were transferred to a sterile tube using 0.25% trypsin and centrifuged to remove the medium. Afterward, the cells were washed with 500 μL of D-PBS twice to completely remove the medium, and finally, resuspended in 400 μL of D-PBS and intracellular fluorescence was measured by flow cytometry (FACSCanto II).

HaCAT cells = assay: Cell penetration efficiency in human epidermal (skin) cells, 4 μM, flow cytometry; type: cell-based; details: 4 μM FITC-conjugated CPP, one hour
Protocol: The cell penetration efficiency of the cationic CPPs selected in Example 1 was evaluated using human epidermal cells. In further detail, HaCAT cells, which is a human epidermal cell line, were seeded in 24-well plates to have a cell density of 1×10^7 cells/well, and cultured in 10% FBS-added DMEM under conditions of 37° C. and 5% CO2 for 24 hours. Subsequently, the cells were treated 4 μM each of the FITC-conjugated CPP or FITC-conjugated TAT, and incubated for one hour. After the termination of the incubation, the cells were transferred to a sterile tube using 0.25% trypsin, and the medium was removed through centrifugation. Afterward, the cells were washed with 500 μL of D-PBS twice to completely remove the medium, and finally, resuspended in 400 μL of D-PBS and intracellular fluorescence was measured by flow cytometry (FACSCanto II).
(§2) To evaluate the cell penetration efficiency of the additionally selected cationic CPPs, an experiment was conducted using human epidermal cells or human neuroblastoma cells. In further detail, HaCAT cells, which is a human epidermal cell line, or SH-SYSY cells, which is a human neuroblastoma cell line, were seeded in 24-well plates to have a cell density of 1×10^7 cells/well and cultured in 10% FBS-added DMEM under conditions of 37° C. and 5% CO2 for 24 hours. In addition, the cells were treated with 4 μM each of FITC-conjugated peptides and FITC-conjugated TAT for one hour. After the completion of the culture, the cells were transferred to a sterile tube using 0.25% trypsin and centrifuged to remove the medium. Afterward, the cells were washed with 500 μL of D-PBS twice to completely remove the medium, and finally, resuspended in 400 μL of D-PBS and intracellular fluorescence was measured by flow cytometry (FACSCanto II).
as §1

SH-SY5Y cells = assay: Cell penetration efficiency in human neuroblastoma cells, 4 μM, flow cytometry; type: cell-based; details: one hour; for cell permeability compared with TAT: 4 μM FITC-conjugated CPP, flow cytometry; for Score / Score/TAT: 4 μM FITC-conjugated peptide; for Score: intracellular fluorescence by flow cytometry; for Score/TAT: ratio to FITC-conjugated TAT
Protocol: The cell penetration efficiency of the cationic CPPs selected in Example 1 was evaluated in neuroblastoma. In further detail, SH-SYSY cells, which is a human neuroblastoma cell line, were seeded in 24-well plates to have a cell density of 1×10^7 cells/well, and cultured in 10% FBS-added DMEM under conditions of 37° C. and 5% CO2 for 24 hours. In addition, the cells were treated with 4 μM each of FITC-conjugated CPPs (C12, C14, C16, C31, C52, and C67), or FITC-conjugated TAT, and incubated for one hour. After the termination of the incubation, the cells were transferred to a sterile tube using 0.25% trypsin and centrifuged to remove the medium. Afterward, the cells were washed with 500 μL of D-PBS twice to completely remove the medium, and finally, resuspended in 400 μL of D-PBS and intracellular fluorescence was measured by flow cytometry (FACSCanto II).
as §2, §1

A-427 cell line = assay: Cell penetration efficiency using lung cells; type: cell-based; details: A-427 lung cells, 4 μM FITC-conjugated CPP, one hour
Protocol: as §1

HeLa cell line = assay: Cell penetration efficiency using cervical cancer cells; type: cell-based; details: 4 μM FITC-conjugated CPP, one hour
Protocol: as §1

SNU-46 cell line = assay: Cell penetration efficiency using laryngeal cells; type: cell-based; details: SNU-46 laryngeal cells, 4 μM FITC-conjugated CPP, one hour
Protocol: as §1

HDF cell line = assay: Cell penetration efficiency in skin cells (HDF); type: cell-based; details: 4 μM FITC-conjugated CPP, one hour
Protocol: as §1

HGB cell line = assay: Cell penetration efficiency in glioblastoma cells; type: cell-based, human; details: 4 μM FITC-conjugated CPP, one hour
Protocol: as §1

HT1080 cell line = assay: Cell penetration efficiency using connective tissue (fibrosarcoma) cells; type: cell-based; details: 4 μM FITC-conjugated CPP, one hour
Protocol: as §1

HEK293T cell line = assay: Cell penetration efficiency using kidney cells; type: cell-based; details: 4 μM FITC-conjugated CPP, one hour
Protocol: as §1

monocytes = assay: Cell penetration efficiency using monocytes; type: cell-based; details: 4 μM FITC-conjugated CPP, one hour
Protocol: as §1

macrophages = assay: Cell penetration efficiency using macrophages; type: cell-based; details: macrophages differentiated from THP1 cells, 4 μM FITC-conjugated CPP, one hour
Protocol: as §1, with “II). Macrophages were used by inducing differentiation from THP1 cells. Specifically, the THP-1 cells were aliquoted on a cover glass laid on a 24-well plate to have a density of 6×10^4 cells/well, and after the addition of 100 ng/mL of phorbol 12-myristate 13-acetate (PMA), the cells were incubated for 48 hours to induce the differentiation into macrophages. After 48 hours, the cells were washed with Dulbecco's phosphate buffered saline (DPBS) to perform an experiment.” for “II).”

Sequence	cell permeability compared with TAT (HepG2 cell line)	cell permeability compared with TAT (HaCAT cells)	cell permeability compared with TAT (SH-SY5Y cells)	Score (SH-SY5Y cells)	Score/TAT (SH-SY5Y cells)	cell permeability compared with TAT (A-427 cell line)	cell permeability compared with TAT (HeLa cell line)	cell permeability compared with TAT (SNU-46 cell line)	cell permeability compared with TAT (HDF cell line)	cell permeability compared with TAT (HGB cell line)	cell permeability compared with TAT (HT1080 cell line)	cell permeability compared with TAT (HEK293T cell line)	cell permeability compared with TAT (monocytes)	cell permeability compared with TAT (macrophages)
KKRKKRRKKRKVDP [C67]	higher cell permeability	increased cell permeability	higher cell permeability	2328	4.486	higher cell permeability	higher cell permeability	higher cell permeability	higher cell permeability	higher cell permeability	higher cell permeability	higher cell permeability	–	–
ALVLLRRRRRDRKP [C14]	higher cell permeability	increased cell permeability; also recorded: higher cell permeability	higher cell permeability	1382	2.663	higher cell permeability	higher cell permeability	higher cell permeability	higher cell permeability	higher cell permeability	higher cell permeability	higher cell permeability	–	–
ARLRVILRRRNPKR [C93]	higher cell permeability	higher cell permeability	higher cell permeability	1798	3.464	higher cell permeability	higher cell permeability	higher cell permeability	higher cell permeability	higher cell permeability	higher cell permeability	higher cell permeability	higher cell permeability	–
MPKIRKLKRRKKFR [C79]	higher cell permeability	higher cell permeability	higher cell permeability	863	1.663	–	higher cell permeability	higher cell permeability	higher cell permeability	higher cell permeability	higher cell permeability	–	higher cell permeability	–
IRAKKKKRRRKKKP [C31]	higher cell permeability	increased cell permeability; also recorded: higher cell permeability	higher cell permeability	998	1.923	higher cell permeability	higher cell permeability	higher cell permeability	higher cell permeability	–	higher cell permeability	higher cell permeability	–	higher cell permeability
LMPSKIRRRKKRKK [C85]	–	higher cell permeability	higher cell permeability	798	1.538	–	–	higher cell permeability	higher cell permeability	–	higher cell permeability	–	higher cell permeability	higher cell permeability
RPLVRRRLRRAVRR [C226]	–	higher cell permeability	–	474	0.913	–	higher cell permeability	higher cell permeability	–	–	–	–	higher cell permeability	higher cell permeability
YRPRRKKITKKLKR [C283]	–	–	–	514	0.990	–	higher cell permeability	higher cell permeability	–	higher cell permeability	higher cell permeability	higher cell permeability	higher cell permeability	higher cell permeability
